Tests used:
giant foxtail [1] = test: Test B pre-/postemergence herbicide test; type: in vivo, Setaria faberi; conditions: for Plant response rating, Foxtail, Giant: preemergence; for Foxtail, Giant plant response rating: postemergence, visual rating, scale 0 (no effect) to 100 (complete control)
Method in brief: (§1)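 Flooded paddy rice and barnyardgrass were treated at the 2-leaf stage; upland plantings received compound either on sown seed or on 1- to 4-leaf seedlings. All were kept 13–15 days in a greenhouse and scored visually, 0–100, relative to untreated plants.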

Surinam grass = test: Test B pre-/postemergence herbicide test; type: in vivo, Urochloa decumbens; conditions: for Plant response rating, Surinam Grass: preemergence; for Surinam Grass plant response rating: postemergence, visual rating, scale 0 (no effect) to 100 (complete control)
Method in brief: as §1

velvetleaf [2] = test: Test B pre-/postemergence herbicide test; type: in vivo, Abutilon theophrasti; conditions: for Plant response rating, Velvetleaf: preemergence; for Velvetleaf plant response rating: postemergence, visual rating, scale 0 (no effect) to 100 (complete control)
Method in brief: as §1

large crabgrass [3] = test: Test A pre-/postemergence herbicide test; type: in vivo, Digitaria sanguinalis
Method in brief: (§2)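 Seeds sown in sandy loam received a preemergence directed soil spray of compound in non-phytotoxic solvent with surfactant; postemergence plants (2–10 cm, one- to two-leaf stage) were sprayed to runoff at the same time. After ~10 days in greenhouse, injury was rated visually versus untreated controls (0 = no effect, 100 = complete control).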

large crabgrass [4] = test: Test B pre-/postemergence herbicide test; type: in vivo, Digitaria sanguinalis; conditions: for Plant response rating, Crabgrass, Large: preemergence; for Crabgrass, Large plant response rating: postemergence, visual rating, scale 0 (no effect) to 100 (complete control)
Method in brief: as §1

[5] = tested on: small flower umbrella sedge; test: Test B flooded paddy test; type: in vivo, Cyperus difformis; conditions: 1000 g ai/ha, visual rating, scale 0 to 100 (0 no effect, 100 complete control), 13 to 15 days
Method in brief: (§3)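 Greenhouse test; postemergence application to plants at 1–4 leaves (2–18 cm); paddy species at 2 leaves; evaluated visually vs controls at 13–15 days; scale 0–100 (100 = complete control).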

wheat = test: Test B postemergence herbicide test; type: in vivo, Triticum aestivum; set-up: key to Wheat plant response rating: 0 = no effect, 100 = complete control; conditions: postemergence, visual rating, scale 0 (no effect) to 100 (complete control)
Method in brief: (§4)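 Each value is a visual 0–100 response rating taken against controls 13 to 15 days after treatment in the greenhouse. Plants received formulated chemical postemergence at the 1- to 4-leaf stage or, in flooded paddy, at the 2-leaf stage.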

wild oat = test: Test B postemergence herbicide test; type: in vivo, Avena fatua; conditions: postemergence, visual rating, scale 0 (no effect) to 100 (complete control)
Method in brief: as §4

barnyardgrass [6] = test: Test A pre-/postemergence herbicide test; type: in vivo, Echinochloa crus-galli
Method in brief: as §2

corn = test: Test B pre-/postemergence herbicide test; type: in vivo, Zea mays; conditions: for Plant response rating, Corn: preemergence; for Corn plant response rating: postemergence, visual rating, scale 0 (no effect) to 100 (complete control)
Method in brief: as §1

redroot pigweed = test: Test A pre-/postemergence herbicide test; type: in vivo, Amaranthus retroflexus
Method in brief: as §2

ducksalad = test: Test B flooded paddy test; type: in vivo, Heteranthera limosa; conditions: 1000 g ai/ha, visual rating, scale 0 to 100 (0 no effect, 100 complete control), 13 to 15 days
Method in brief: as §3

morningglory [7] = test: Test A pre-/postemergence herbicide test; type: in vivo, Ipomoea spp.
Method in brief: as §2

cocklebur = test: Test B pre-/postemergence herbicide test; type: in vivo, Xanthium strumarium; conditions: for Plant response rating, Cocklebur: preemergence; for Cocklebur plant response rating: postemergence, visual rating, scale 0 (no effect) to 100 (complete control)
Method in brief: (§5)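 Greenhouse pot assay with simultaneous preemergence (treated seed) and postemergence (2–18 cm seedlings) applications of surfactant-containing, non-phytotoxic solvent formulations. Response scored visually 13–15 days later on a 0–100 scale, 100 meaning complete control.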

giant foxtail [8] = test: Test A pre-/postemergence herbicide test; type: in vivo, Setaria faberi
Method in brief: as §2

velvetleaf [9] = test: Test A pre-/postemergence herbicide test; type: in vivo, Abutilon theophrasti
Method in brief: as §2

pigweed = test: Test B pre-/postemergence herbicide test; type: in vivo, Amaranthus retroflexus; conditions: for Plant response rating, Pigweed: preemergence; for Pigweed plant response rating: postemergence, visual rating, scale 0 (no effect) to 100 (complete control)
Method in brief: as §1

lambsquarters = test: Test B pre-/postemergence herbicide test; type: in vivo, Chenopodium album; conditions: for Plant response rating, Lambsquarters: preemergence; for Lambsquarters plant response rating: postemergence, visual rating, scale 0 (no effect) to 100 (complete control)
Method in brief: as §1

rice [10] = test: Test B pre-/postemergence herbicide test; type: in vivo, Oryza sativa; conditions: preemergence, 125 g ai/ha; 0 to 100 scale, 0 is no effect, 100 is complete control
Method in brief: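 Evaluation is visual, comparing treated with control plants on a scale where 0 means no effect and 100 means full control. Treatments were preemergence, or postemergence on seedlings 2–18 cm tall, and held 13–15 days in the greenhouse.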

blackgrass = test: Test B postemergence herbicide test; type: in vivo, Alopecurus myosuroides; conditions: postemergence, visual rating, scale 0 (no effect) to 100 (complete control)
Method in brief: as §3

barnyardgrass [11] = test: Test B pre-/postemergence herbicide test; type: in vivo, Echinochloa crus-galli; conditions: for Plant response rating, Barnyardgrass: preemergence; for Barnyardgrass plant response rating: postemergence, visual rating, scale 0 (no effect) to 100 (complete control)
Method in brief: as §5

barnyardgrass [12] = test: Test B flooded paddy test; type: in vivo, Echinochloa crus-galli; conditions: 1000 g ai/ha, visual rating, scale 0 to 100 (0 no effect, 100 complete control), 13 to 15 days
Method in brief: as §3

rice [13] = test: Test B flooded paddy test; type: in vivo, Oryza sativa; conditions: 1000 g ai/ha, visual rating, scale 0 to 100 (0 no effect, 100 complete control), 13 to 15 days
Method in brief: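 After treating 2-leaf paddy plants or 2–18 cm postemergence plants (1 to 4 leaves) with formulated chemical, researchers kept them in a greenhouse for 13–15 days. Effects were judged visually versus controls: 0 indicates none, 100 total control.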

morningglory [14] = test: Test B pre-/postemergence herbicide test; type: in vivo, Ipomoea coccinea; conditions: for Plant response rating, Morningglory: preemergence; for Morningglory plant response rating: postemergence, visual rating, scale 0 (no effect) to 100 (complete control)
Method in brief: as §5

[15] = 500 g ai/ha, visual rating 0-100, 0 no effect, 100 complete control
[16] = 125 g ai/ha, 0 to 100 scale, 0 is no effect, 100 is complete control
[17] = Postemergence, 500 g ai/ha, 0 to 100 scale, 0 no effect, 100 complete control
[18] = Postemergence, 2000 g ai/ha, 0 to 100 scale, 0 no effect, 100 complete control
[19] = Preemergence, 500 g ai/ha, visual rating, 0 to 100 scale (0 no effect, 100 complete control)
[20] = Preemergence, 2000 g ai/ha, visual rating, 0 to 100 scale (0 no effect, 100 complete control)
[21] = preemergence, 500 g ai/ha, visual injury, 0 to 100 scale (0 no effect, 100 complete control)

SMILES: Cn1nc(C(C)(C)C)cc1C(=O)Nc1cccc(C#N)c1 [Compound 121]
- Plant response rating, Foxtail, Giant (giant foxtail [1]; [15]): 70
- Foxtail, Giant plant response rating (giant foxtail [1]; 125 g ai/ha): 0
- Foxtail, Giant plant response rating (giant foxtail [1]; 500 g ai/ha): 10
- Plant response rating, Foxtail, Giant (giant foxtail [1]; [16]): 0
- Plant response rating, Surinam Grass (Surinam grass; [15]): 20
- Surinam Grass plant response rating (Surinam grass; 125 g ai/ha): 10
- Surinam Grass plant response rating (Surinam grass; 500 g ai/ha): 30
- Plant response rating, Surinam Grass (Surinam grass; [16]): 0
- Plant response rating, Velvetleaf (velvetleaf [2]; [15]): 20
- Velvetleaf plant response rating (velvetleaf [2]; 125 g ai/ha): 10
- Velvetleaf plant response rating (velvetleaf [2]; 500 g ai/ha): 20
- Plant response rating, Velvetleaf (velvetleaf [2]; [16]): 0
- Crabgrass, Large plant response rating (large crabgrass [3]; [17]): 10
- Plant response rating, Crabgrass, Large (large crabgrass [3]; [18]): 10
- Crabgrass, Large plant response rating (large crabgrass [3]; [19]): 10
- Crabgrass, Large plant response rating (large crabgrass [3]; [20]): 75
- Plant response rating, Crabgrass, Large (large crabgrass [4]; [15]): 50
- Crabgrass, Large plant response rating (large crabgrass [4]; 125 g ai/ha): 10
- Crabgrass, Large plant response rating (large crabgrass [4]; 500 g ai/ha): 10
- Plant response rating, Crabgrass, Large (large crabgrass [4]; [16]): 0
- Sedge, Umbrella plant response rating [5]: 0
- Wheat plant response rating (wheat; 125 g ai/ha): 0
- Wheat plant response rating (wheat; 500 g ai/ha): 0
- Oat, Wild plant response rating (wild oat; 125 g ai/ha): 10
- Oat, Wild plant response rating (wild oat; 500 g ai/ha): 30
- Barnyardgrass plant response rating (barnyardgrass [6]; [17]): 10
- Plant response rating, Barnyardgrass (barnyardgrass [6]; [18]): 35
- Barnyardgrass plant response rating (barnyardgrass [6]; [19]): 15
- Barnyardgrass plant response rating (barnyardgrass [6]; [20]): 40
- Plant response rating, Corn (corn; [15]): 0
- Corn plant response rating (corn; 125 g ai/ha): 0
- Corn plant response rating (corn; 500 g ai/ha): 10
- Plant response rating, Corn (corn; [16]): 0
- Pigweed plant response rating (redroot pigweed; [17]): 90
- Plant response rating, Pigweed (redroot pigweed; [18]): 100
- Pigweed plant response rating (redroot pigweed; [20]): 100
- Pigweed plant response rating (redroot pigweed; [21]): 95
- Ducksalad plant response rating (ducksalad): 0
- Morningglory plant response rating (morningglory [7]; [17]): 20
- Plant response rating, Morningglory (morningglory [7]; [18]): 20
- Morningglory plant response rating (morningglory [7]; [19]): 5
- Morningglory plant response rating (morningglory [7]; [20]): 20
- Plant response rating, Cocklebur (cocklebur; [15]): 0
- Cocklebur plant response rating (cocklebur; 125 g ai/ha): 10
- Cocklebur plant response rating (cocklebur; 500 g ai/ha): 20
- Plant response rating, Cocklebur (cocklebur; [16]): 0
- Foxtail, Giant plant response rating (giant foxtail [8]; [17]): 15
- Plant response rating, Foxtail, Giant (giant foxtail [8]; [18]): 25
- Foxtail, Giant plant response rating (giant foxtail [8]; [19]): 25
- Foxtail, Giant plant response rating (giant foxtail [8]; [20]): 75
- Velvetleaf plant response rating (velvetleaf [9]; [17]): 10
- Plant response rating, Velvetleaf (velvetleaf [9]; [18]): 15
- Velvetleaf plant response rating (velvetleaf [9]; [20]): 30
- Velvetleaf plant response rating (velvetleaf [9]; [21]): 10
- Plant response rating, Pigweed (pigweed; [15]): 100
- Pigweed plant response rating (pigweed; 125 g ai/ha): 30
- Pigweed plant response rating (pigweed; 500 g ai/ha): 50
- Plant response rating, Pigweed (pigweed; [16]): 80
- Plant response rating, Lambsquarters (lambsquarters; [15]): 100
- Lambsquarters plant response rating (lambsquarters; 125 g ai/ha): 80
- Lambsquarters plant response rating (lambsquarters; 500 g ai/ha): 80
- Plant response rating, Lambsquarters (lambsquarters; [16]): 70
- Plant response rating, Rice (rice [10]): 0
- Blackgrass plant response rating (blackgrass; 125 g ai/ha): 0
- Blackgrass plant response rating (blackgrass; 500 g ai/ha): 0
- Plant response rating, Barnyardgrass (barnyardgrass [11]; [15]): 80
- Barnyardgrass plant response rating (barnyardgrass [11]; 125 g ai/ha): 0
- Barnyardgrass plant response rating (barnyardgrass [11]; 500 g ai/ha): 0
- Plant response rating, Barnyardgrass (barnyardgrass [11]; [16]): 0
- Barnyardgrass plant response rating (barnyardgrass [12]): 0
- Rice plant response rating (rice [13]): 0
- Plant response rating, Morningglory (morningglory [14]; [15]): 20
- Morningglory plant response rating (morningglory [14]; 125 g ai/ha): 0
- Morningglory plant response rating (morningglory [14]; 500 g ai/ha): 0
- Plant response rating, Morningglory (morningglory [14]; [16]): 0
